Legend:
H. pylori GR = test system: H. pylori GR; set-up: method as in earlier work; settings: ref 8 (Lundqvist et al.); cited from earlier work
[1] = set-up: method as in PMID 31876113; settings: carboxylic acid form (α-carboxylate protonated by Cys181); cited from earlier work
[2] = biological target: T1, H. pylori glutamate racemase (GR) (Helicobacter pylori, UniProt Q9ZLT0); test: Surface plasmon resonance (SPR) binding to immobilized GR; settings: 1:1 Langmuir binding model, absence of substrate D-Glu, 25 °C, 500-7.81 µM dilution series
T1 construct: made in house; host or cells: E. coli BL21 (DE3) pLysS, co-expressed with GroEL/ES
T1 sequence (Q9ZLT0 whole entry): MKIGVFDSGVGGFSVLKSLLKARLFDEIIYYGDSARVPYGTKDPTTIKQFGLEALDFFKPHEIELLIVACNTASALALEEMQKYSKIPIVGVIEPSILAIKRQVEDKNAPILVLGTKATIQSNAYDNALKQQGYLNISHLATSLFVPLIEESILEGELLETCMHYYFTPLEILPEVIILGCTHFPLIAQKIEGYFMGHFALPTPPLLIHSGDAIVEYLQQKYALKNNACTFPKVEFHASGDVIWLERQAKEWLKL
Protocol: We first evaluated the binding affinity of these compounds to H. pylori GR by Surface Plasmon Resonance (SPR). A combination of amine coupling and HisCapture was used to immobilize the protein on the surface of the SPR biosensor. Compounds were injected onto the sensor in increasing concentrations using a dilution series ranging from 500 µM to 7.81 µM (7 concentrations).
Experiments were performed using a SensiQ Pioneer SPR. The biosensor chip was first equilibrated with SPR running buffer (50 mM Tris-HCl, 100 mM NaCl, TCEP, 1% v/v TWEEN, pH 8.0), then the surface of the biosensor chip was seasoned by injecting 200 μL 50 mM NaOH at 40 μL/min, 200 μL 0.1% v/v SDS at 40 μL/min, and 200 μL 10 mM HCl at 40 μL/min in the test and reference biosensor chip flow channels. This process of seasoning was repeated twice. All buffers and solutions were filter sterilized with 0.22-μm buffer filters before using on the SPR instrument. After seasoning, the lines were primed three times with SPR buffer. […]
H. pylori GR was immobilized to the biosensor using a HisCapture couple method detailed above. […] All sensograms were analyzed using the program Qdat (2.6.3.0) and it fitted to a model of simple binding of 1:1 Langmuir binding model for all virtual hits. […]

[3] = biological target: T1, H. pylori glutamate racemase (GR); test: Coupled-enzyme assay (L-glutamate dehydrogenase/diaphorase) of D- to L-glutamate racemization; format: biochemical; settings: 1.25 mM D-Glu, 2 µM GR, 50 mM TRIS pH 8, 5% DMSO; mean ± SE n = 3 for NP-020560 and Compound A, other hits single repeat
Protocol: The D- to L-glutamate racemization activities of H. pylori GR was assayed through a previously established coupled-enzyme method, utilizing L-glutamate dehydrogenase and diaphorase[40]. […] The assay consists of 1.25 mM D-Glu, 2.51 mM ADP, 5 mM NAD, 0.506 mM INT, 5 Units of L-GDH, 0.4 units of diaphorase and 2 µM GR in 50 mM TRIS, pH = 8. Compound stocks solutions of varying concentrations (100 µM–50 mM) were made in DMSO and introduced in the assay vials. The final DMSO concentration after addition of compounds in the assay was 5% v/v. […] Absorption for the reduced iodonitrotetrazolium was collected by measuring absorbance at 500 nm at 1 min interval for 60 min on Cary 300 UV-VIS Spectrophotometer from Varian (Palo Alto, CA). Absorbance for each compound concentration at every time point were normalized to absorbance for blank, followed by calculating slopes for each concentration. The calculated slopes with the respective log (inhibitor concertation) were fitted to log(inhibitor) vs response (three parameters) model within ‘Nonlinear Regression-Dose Response Inhibition’ in GraphPad Prism version 8.4.3. The program provides output as IC50 and LogIC50 along with respective standard errors, and for ease of expression, we report inhibition data as IC50 (mean ± SE).

For `CC(C)Cn1c(=O)n(C)c(=O)c2c(-c3ccncc3)n(Cc3cccc4ccccc34)nc21` [Compound A], the IC50 (H. pylori GR) is given as 5 µM.
For `N[C@H](CCC(=O)O)C(=O)O` [D-Glu, D-glutamate], the “pKa of α-carbon of D-Glu substrate” value [1] is given as 14.4.
Work on `Cc1cc2c(c(-c3c(O)c(C)cc4c3C(=O)c3c(O)cc(O)cc3C4=O)c1O)C(=O)c1c(O)cc(O)cc1C2=O` [NP-020560] yielded a Kd [2] of 54.7 ± 0.3 µM and an IC50 [3] of 6.6 ± 3.1 µM.

— PMC9169614, “Decrypting a cryptic allosteric pocket in H. pylori glutamate racemase” (Communications Chemistry, 2021)
